Reference: patent US10836763B2, “5 to 7 membered heterocyclic amides as JAK inhibitors” (priority 2018, dated 2020)
Where two headings read alike, the source gives them in different places.

Legend:
[1] = Lung and plasma drug concentration in the murine IL-13 pSTAT6 model; format: in vivo; details: mouse, other: oral aspiration, 50 µg/mouse; for Kp at 5 h: Balb/c, lung ng/g to plasma ng/mL at 5 hours, mice, oral aspiration, read-out: Lung to Plasma ratio at 5 hr; for concentration at 5 h: Balb/c mice, 1 mg/mL, 50 μL oral aspiration, 5 hr post dose
Procedure: (§1) Assay 3: Murine (Mouse) Model of IL-13 Induced pSTAT6 Induction in Lung Tissue
Adult Balb/c mice from Harlan were used in the assay. […] Animals were placed in lateral recumbency post dose and monitored for full recovery from anesthesia before being returned to their home cage. Four hours later, animals were once again briefly anesthetized and challenged with either vehicle or IL-13 (0.03 μg total dose delivered, 50 μL total volume) via oral aspiration before being monitored for recovery from anesthesia and returned to their home cage. One hour after vehicle or IL-13 administration, whole blood and lungs were collected for both pSTAT6 detection in lung homogenates using a Perkin Elmer AlphaLISA® SureFire® Ultra™ HV p-STAT6 (Tyr641) assay kit and for total drug concentration analysis in both lung and plasma. Blood samples were centrifuged (Eppendorf centrifuge, 5804R) for 4 minutes at approximately 12,000 rpm at 4° C. to collect plasma. […] Plasma and lung levels of test compound were determined by LC-MS analysis against analytical standards constructed into a standard curve in the test matrix. A lung to plasma ratio was determined as the ratio of the lung concentration in ng/g to the plasma concentration in ng/mL at 5 hours.

[2] = test system: IL-13 induced pSTAT6 in lung tissue; test: Murine model of IL-13 induced pSTAT6 induction in lung tissue; format: in vivo, mouse; details: Balb/c mice, 1 mg/mL, 50 μL oral aspiration; IL-13 challenge 4 hours after compound; lung homogenate
Procedure: as §1
IL-13 binds to cell surface receptors activating members of the Janus family of kinases (JAK) which then phosphorylate STAT6 and subsequently activates further transcription pathways. In the described model, a dose of IL-13 was delivered locally into the lungs of mice to induce the phosphorylation of STAT6 (pSTAT6) which is then measured as the endpoint.
Activity in the model is evidenced by a decrease in the level of pSTAT6 present in the lungs of treated animals at 5 hours compared to the vehicle treated, IL-13 challenged control animals. The difference between the control animals which were vehicle-treated, IL-13 challenged and the control animals which were vehicle-treated, vehicle challenged dictated the 0% and 100% inhibitory effect, respectively, in any given experiment.

Lung S9 metabolism = format: in vitro ADME, human; details: for Compound Remaining at 60 min (%) / microsomal CLint at 1 µM: human lung S9, 1 μM compound, 1 mg/mL S9 protein, NADPH and PAPS; for microsomal CLint at 1 µM: lung S9 fraction, pH 7.4, read-out: Clearance; for Sulfate Appearance: qualitative, O-sulfate metabolite peak in human lung S9
Procedure: Assay 5: Lung S9 Metabolism […] Lung S9 fractions from human (lot 1410245) were purchased from XenoTech LLC (Lenexa, Kans.). NADPH (Sigma Aldrich, N1630) and 3-phosphoadenosine 5-phosphosulfate (PAPS) (Sigma Aldrich, A1651) were purchased from Sigma Aldrich (St. Louis, Mo.). Acetonitrile and water were obtained from VWR (Radnor, Pa.) and were of HPLC grade or better. Raloxifene and formic acid was purchased from Sigma Aldrich (St. Louis, Mo.). Lung S9 incubations were performed in a water bath at 37° C. in a 96-well polypropylene plate. […] All samples were centrifuged at 2250 g for 10 minutes at 5° C. Supernatant (50 μL) was taken from the centrifuged samples and diluted into 100 μL HPLC water containing internal standard. […] Mobile Phase A consisted of Water+0.2% formic acid and Mobile Phase B consisted of acetonitrile+0.2% formic acid. Peak integration was accomplished using Gubbs GMSU software (Gubbs Inc., Alpharetta, Ga.). For each sample, peak area ratios were calculated by dividing the analyte peak area by the internal standard peak area. […] Determination of sulfate metabolite formation was made qualitatively by observation of early-eluting peak in the parent ion channel which, based on historical internal data, corresponded to the O-sulfate metabolite of each parent compound.

[3] = test system: IL-2 stimulated STAT5 phosphorylation in Tall-1 human T cell line; test: Inhibition of IL-2 stimulated pSTAT5 in Tall-1 T cells; format: cell-based; details: TALL-1, 0.5 h, read-out: Tall-1 pIC50 (converted)
Procedure: Assay 2: Inhibition of IL-2 Stimulated pSTAT5 in Tall-1 T Cells
The potency of test compounds for inhibition of interleukin-2 (IL-2) stimulated STAT5 phosphorylation was measured in the Tall-1 human T cell line (DSMZ) using AlphaLisa.
Phosphorylated STAT5 was measured via the AlphaLISA SureFire Ultra pSTAT5 (Tyr694/699) kit (PerkinElmer).
Compounds were serially diluted in DMSO and dispensed acoustically to empty wells. Assay media (phenol red-free DMEM (Life Technologies) supplemented with 10% FBS (ATCC)) was dispensed (4 μL/well) and plates shaken at 900 rpm for 10 mins. Cells were seeded at 45,000 cells/well in assay media (4 μL/well), and incubated at 37° C., 5% CO2 for 1 hour, followed by the addition of IL-2 (R&D Systems; final concentration 300 ng/mL) in pre-warmed assay media (4 μL) for 30 minutes. […] The lysate was shaken at 900 rpm for 10 minutes at room temperature (RT). Phosphorylated STAT5 was measured via the pSTAT5 AlphaLisa kit (PerkinElmer). Freshly prepared acceptor bead mixture was dispensed onto lysate (5 μL) under green filtered <100 lux light. Plates were shaken at 900 rpm for 2 mins, briefly spun down, and incubated for 2 hrs at RT in the dark. Donor beads were dispensed (5 μL) under green filtered <100 lux light. Plates were shaken at 900 rpm for 2 minutes, briefly spun down, and incubated overnight at RT in the dark. Luminescence was measured with excitation at 689 nm and emission at 570 nm using an EnVision plate reader (PerkinElmer) under green filtered <100 lux light.
To determine the inhibitory potency of test compounds in response to IL-2, the average emission intensity of beads bound to pSTAT5 was measured in a human T cell line. IC50 values were determined from analysis of the inhibition curves of signal intensity versus compound concentration. Data are expressed as pIC50 (negative decadic logarithm IC50) values (mean±standard deviation).

[4] = lung, read-out: Lung Concentration (ng/g) at 5 hr
[5] = plasma, read-out: Plasma Concentration (ng/mL) at 5 hr
[6] = IL-2 300 ng/mL, 30 min, pSTAT5 AlphaLisa

Compound | Kp at 5 h [1] | concentration at 5 h [1, 4] | concentration at 5 h [1, 5] | pSTAT6 inhibition at 5 hours [2] | Compound Remaining at 60 min (%) (Lung S9 metabolism) | microsomal CLint at 1 µM (Lung S9 metabolism) | Sulfate Appearance (Lung S9 metabolism) | IC50 [3, 6] | IC50 [3]
CCCN1Cc2[nH]c(-c3n[nH]c4cc(-c5ccc(O)cc5CC)ccc34)nc2C[C@H]1C(=O)N1CCN(CCO)CC1 [Compound 1, (S)-(2-(6-(2-ethyl-4-hydroxyphenyl)-1H-indazol-3-yl)-5-propyl-4,5,6,7-tetrahydro-3H-imidazo[4,5-c]pyridin-6-yl)(4-(2-hydroxyethyl)piperazin-1-yl)methanone] | 1260 | 13000 ± 5720 ng/g | 10.3 ± 3.9 ng/mL | 67% | 78% | 4.2 µL/min/mg | Yes | 1.58 nM | 
CCCN1Cc2[nH]c(-c3n[nH]c4cc(-c5ccc(O)cc5CC)ccc34)nc2C[C@H]1C(=O)N1C[C@@H]2C[C@H]1CN2C [Compound 2, ((S)-2-(6-(2-ethyl-4-hydroxyphenyl)-1H-indazol-3-yl)-5-propyl-4,5,6,7-tetrahydro-3H-imidazo[4,5-c]pyridin-6-yl)((1S,4S)-5-methyl-2,5-diazabicyclo[2.2.1]heptan-2-yl)methanone] | 1340 | 23400 ± 12500 ng/g | 17.5 ± 25 ng/mL | 72% | 81% | 3.5 µL/min/mg | Yes | 3.98 nM | 
CCc1cc(O)ccc1-c1ccc2c(-c3nc4c([nH]3)CN(C(C)C)[C@H](C(=O)N3CCCN(C)CC3)C4)n[nH]c2c1 [Compound 4, (S)-(2-(6-(2-ethyl-4-hydroxyphenyl)-1H-indazol-3-yl)-5-isopropyl-4,5,6,7-tetrahydro-3H-imidazo[4,5-c]pyridin-6-yl)(4-methyl-1,4-diazepan-1-yl)methanone] | 788 | 17400 ± 6620 ng/g | 22 ± 23 ng/mL | 67% | 88% | 2.1 µL/min/mg | Yes |  | 2.51 nM
CCc1cc(O)ccc1-c1ccc2c(-c3nc4c([nH]3)CN(C)[C@H](C(=O)N3CCN(CCO)C[C@H]3C)C4)n[nH]c2c1 [Compound 5, ((S)-2-(6-(2-ethyl-4-hydroxyphenyl)-1H-indazol-3-yl)-5-methyl-4,5,6,7-tetrahydro-3H-imidazo[4,5-c]pyridin-6-yl)((R)-4-(2-hydroxyethyl)-2-methylpiperazin-1-yl)methanone] | 418 | 5440 ± 1860 ng/g | 13 ± 3.7 ng/mL | 73% | 80% | 3.7 µL/min/mg | Yes |  | 1.58 nM
CCCN1Cc2[nH]c(-c3n[nH]c4cc(-c5cc(F)c(O)cc5CC)ccc34)nc2C[C@H]1C(=O)N1CCN(CCO)CC1 [Compound C-1, (S)-(2-(6-(2-ethyl-5-fluoro-4-hydroxyphenyl)-1H-indazol-3-yl)-5-propyl-4,5,6,7-tetrahydro-3H-imidazo[4,5-c]pyridin-6-yl)(4-(2-hydroxyethyl)piperazin-1-yl)methanone, reference compound] |  |  |  |  | 29% | 20.8 µL/min/mg | Yes | 2 nM | 
CCCN1Cc2[nH]c(-c3n[nH]c4cc(-c5cc(F)c(O)cc5CC)ccc34)nc2C[C@H]1C(=O)N1C[C@@H]2C[C@H]1CN2C [Compound C-2, ((S)-2-(6-(2-ethyl-5-fluoro-4-hydroxyphenyl)-1H-indazol-3-yl)-5-propyl-4,5,6,7-tetrahydro-3H-imidazo[4,5-c]pyridin-6-yl)((1S,4S)-5-methyl-2,5-diazabicyclo-[2.2.1]heptan-2-yl)methanone, reference compound] |  |  |  |  | 3% | 61 µL/min/mg | Yes | 2.51 nM | 
CCc1cc(O)c(F)cc1-c1ccc2c(-c3nc4c([nH]3)CN(C)[C@H](C(=O)N3CCN(C)C[C@@H]3C)C4)n[nH]c2c1 [Compound C-3, ((S)-2,4-dimethylpiperazin-1-yl)((S)-2-(6-(2-ethyl-5-fluoro-4-hydroxyphenyl)-1H-indazol-3-yl)-5-methyl-4,5,6,7-tetrahydro-3H-imidazo[4,5-c]pyridin-6-yl)methanone, reference compound] |  |  |  |  | 14% | 33.2 µL/min/mg | Yes | 2 nM | 
CCc1cc(O)c(F)cc1-c1ccc2c(-c3nc4c([nH]3)CN(C(C)C)[C@H](C(=O)N3CCCN(C)CC3)C4)n[nH]c2c1 [Compound C-4, (S)-(2-(6-(2-ethyl-5-fluoro-4-hydroxyphenyl)-1H-indazol-3-yl)-5-isopropyl-4,5,6,7-tetrahydro-3H-imidazo[4,5-c]pyridin-6-yl)(4-methyl-1,4-diazepan-1-yl)methanone, reference compound] |  |  |  |  | 4% | 53.4 µL/min/mg | Yes | 2 nM | 
CCc1cc(O)c(F)cc1-c1ccc2c(-c3nc4c([nH]3)CN(C)[C@H](C(=O)N3CCN(CCO)C[C@H]3C)C4)n[nH]c2c1 [Compound C-5, ((S)-2-(6-(2-ethyl-5-fluoro-4-hydroxyphenyl)-1H-indazol-3-yl)-5-methyl-4,5,6,7-tetrahydro-3H-imidazo[4,5-c]pyridin-6-yl)((R)-4-(2-hydroxyethyl)-2-methyl-piperazin-1-yl)methanone, reference compound] |  |  |  |  | 8% | 42.2 µL/min/mg | Yes | 2.51 nM | 
